# Where “and” joins values, the source holds several entries; their conditions need not be identical. Equal values may be shown once. Calls of active or inactive are those of the source.
# Assays:
# Estrogen receptor beta = Estrogen receptor beta (Homo sapiens, UniProt Q92731); test: ERβ–SRC-3 coactivator interaction inhibitors, confirmation, orthogonal assay, biochemical, ELISA, streptavidin-HRP readout (AID 1060)
# [1] = HIV-1 Env-mediated cell fusion inhibitors, dose response, CCR5-tropic Env (AID 2279); type: functional
# [2] = target: T1, Dual specificity protein phosphatase 6 (Rattus norvegicus, UniProt Q64346); test: MKP-3 phosphatase inhibitors, primary screen, biochemical, rat enzyme, in vitro (AID 425)
# T1 sequence (Q64346 whole entry): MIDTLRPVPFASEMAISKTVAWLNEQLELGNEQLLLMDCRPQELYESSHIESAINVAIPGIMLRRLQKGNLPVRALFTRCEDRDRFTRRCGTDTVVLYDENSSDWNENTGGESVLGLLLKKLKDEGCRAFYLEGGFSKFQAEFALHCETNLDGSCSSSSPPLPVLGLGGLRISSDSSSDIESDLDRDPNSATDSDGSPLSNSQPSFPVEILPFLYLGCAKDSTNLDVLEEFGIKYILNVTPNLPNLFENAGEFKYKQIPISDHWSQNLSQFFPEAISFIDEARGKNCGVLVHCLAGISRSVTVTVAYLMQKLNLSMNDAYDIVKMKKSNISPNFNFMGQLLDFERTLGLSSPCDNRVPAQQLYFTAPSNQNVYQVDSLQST
# [3] = target: Heat shock cognate 71 kDa protein (Homo sapiens, UniProt P11142); test: In Vitro Hsc70 Dose Response Fluorescence Polarization Assay. [Related pubchem assays: 1072 ]
# [4] = target: T2, Tyrosine-protein phosphatase non-receptor type 22 (Homo sapiens, UniProt Q9Y2R2); type: functional
# T2 sequence (Q9Y2R2 whole entry): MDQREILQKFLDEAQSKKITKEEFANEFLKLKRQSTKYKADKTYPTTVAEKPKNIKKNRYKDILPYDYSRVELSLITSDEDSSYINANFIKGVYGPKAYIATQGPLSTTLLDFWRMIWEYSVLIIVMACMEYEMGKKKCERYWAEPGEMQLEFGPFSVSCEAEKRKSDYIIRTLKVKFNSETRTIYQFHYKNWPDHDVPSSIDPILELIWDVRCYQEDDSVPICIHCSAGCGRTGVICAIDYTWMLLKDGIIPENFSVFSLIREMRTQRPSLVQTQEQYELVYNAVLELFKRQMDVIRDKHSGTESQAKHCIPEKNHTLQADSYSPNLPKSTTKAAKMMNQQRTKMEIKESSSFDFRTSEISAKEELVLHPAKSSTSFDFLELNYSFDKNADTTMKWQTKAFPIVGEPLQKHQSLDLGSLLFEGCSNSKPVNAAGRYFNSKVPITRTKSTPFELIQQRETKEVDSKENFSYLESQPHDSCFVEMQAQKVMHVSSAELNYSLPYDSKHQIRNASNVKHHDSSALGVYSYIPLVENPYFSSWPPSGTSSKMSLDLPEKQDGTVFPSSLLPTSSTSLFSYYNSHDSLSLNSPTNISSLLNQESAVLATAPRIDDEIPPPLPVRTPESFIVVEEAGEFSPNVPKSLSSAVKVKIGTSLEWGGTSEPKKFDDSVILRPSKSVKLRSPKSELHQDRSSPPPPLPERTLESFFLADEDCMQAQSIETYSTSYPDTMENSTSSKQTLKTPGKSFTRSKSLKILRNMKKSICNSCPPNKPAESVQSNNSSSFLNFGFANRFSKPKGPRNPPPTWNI
# NS3 = NS3 (Hepatitis C virus, UniProt A3EZJ3); test: PubChem AID 2173; design: species or system Hepacivirus hominis
# [5] = target: T2, Tyrosine-protein phosphatase non-receptor type 22; type: functional; remark: listed apart in the source
# [6] = target: T1, Dual specificity protein phosphatase 6
# [7] = target: T1, Dual specificity protein phosphatase 6; type: functional
# [8] = target: T3, Voltage-gated N-type calcium channel alpha-1B subunit/Amyloid beta A4 precursor protein-binding family A member 1 (Homo sapiens, UniProt Q00975+Q02410); type: protein assay
# [9] = target: Heat shock 70 kDa protein 1A (Homo sapiens, UniProt P0DMV8); test: Hsp70 inhibitors, SAR follow-up, biochemical, fluorescence polarization (AID 1072)
# [10] = target: T4, Tyrosine-protein phosphatase non-receptor type 7 (Homo sapiens, UniProt P35236); type: functional
# T4 sequence (P35236 whole entry): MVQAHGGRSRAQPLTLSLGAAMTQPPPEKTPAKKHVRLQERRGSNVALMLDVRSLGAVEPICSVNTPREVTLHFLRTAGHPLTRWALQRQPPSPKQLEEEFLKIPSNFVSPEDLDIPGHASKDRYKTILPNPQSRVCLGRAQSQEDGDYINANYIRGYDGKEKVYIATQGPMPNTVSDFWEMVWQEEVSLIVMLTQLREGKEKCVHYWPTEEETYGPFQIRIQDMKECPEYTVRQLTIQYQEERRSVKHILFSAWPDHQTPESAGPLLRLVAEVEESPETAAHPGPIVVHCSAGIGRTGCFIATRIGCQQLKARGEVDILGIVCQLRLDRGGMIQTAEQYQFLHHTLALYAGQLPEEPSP
# [11] = target: T3, Voltage-gated N-type calcium channel alpha-1B subunit/Amyloid beta A4 precursor protein-binding family A member 1; type: protein assay; remark: listed apart in the source
# [12] = target: Eukaryotic translation initiation factor 4E (Mus musculus, UniProt P63073); test: eIF4E–eIF4G protein interaction inhibitors, dose response, biochemical, TR-FRET (AID 855); type: functional;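 note: potency for disrupting eIF4E binding to eIF4GI seen as loss of FRET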
# [13] = target: T4, Tyrosine-protein phosphatase non-receptor type 7; type: functional; remark: listed apart in the source
# [14] = Vero cell cytotoxicity, dose response, cytotoxicity control for Vif-APOBEC3G degradation inhibitor project, Vero cells (AID 1117358); type: functional; conditions: Human immunodeficiency virus 1, Vero
# Genome polyprotein = Genome polyprotein (Hepatitis C virus, UniProt Q2Q167); test: HCV core protein dimerization inhibitors, dose response, biochemical, TR-FRET (AID 2159); design: species or system Hepacivirus hominis;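 note: blocks dimerization of HCV core protein measured by TR-FRET between tagged core106 pairs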
# [15] = target: Glyceraldehyde-3-phosphate dehydrogenase (Homo sapiens, UniProt P04406)
# Bcl-2-like protein 10 = Bcl-2-like protein 10 (Homo sapiens, UniProt Q9HD36); test: Biochemical TR3 FP assay of Bcl-B inhibitor potency, EC50 (AID 1243); type: functional
# [16] = Counterscreen for IDE inhibitors: Luminescence-based cell-based high throughput dose response assay to identify compounds that are cytotoxic to HEK cells. [Related pubchem assays: 434962 (Primary screen (IDE inhibitors in singlicate)), 449730 (Counterscreen (Cytotoxicity in triplicate)), 435028 (Confirmation (IDE inhibitors in triplicate)) …; type: functional; conditions: HEK293
# [17] = Vero E6 cell cytotoxicity, dose response, cytotoxicity control for non-replicating M. tuberculosis project, secondary assay (AID 492998); type: functional, VeroE6; conditions: Vero C1008
# [18] = target: Serine/threonine-protein phosphatase (Homo sapiens, UniProt Q9BPW0); test: Counterscreen for inhibitors of PP1: fluorescence-based biochemical high throughput dose response assay to identify inhibitors of Protein Phosphatase 5 (PP5). [Related pubchem assays: 2034 (Summary (PP5 inhibitors)), 1987 (PP5 inhibitors in singlate), 2235 (PP1 inhibitors in singlate)]
# [19] = target: Serine/threonine-protein phosphatase PP1-alpha catalytic subunit (Homo sapiens, UniProt P62136); test: PP1 phosphatase inhibitors, dose response, biochemical, fluorescence (AID 2403);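 note: phosphatase turnover of OMFP into fluorescent 3-O-methylfluorescein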
# [20] = THP-1 cell cytotoxicity, dose response, cytotoxicity control for non-replicating M. tuberculosis project (AID 489025); type: functional
# cells = type: functional
# SUMO-activating enzyme [21] = target: T5, SUMO-activating enzyme (Homo sapiens, UniProt Q9UBT2); test: SUMOylation inhibitor hit validation, confirmation, SUMOylation inhibitor project, biochemical, AlphaScreen (AID 2018); type: functional
# [22] = inhibitors of Vif binding to APOBEC3G peptide, primary screen, biochemical, TR-FRET, GST-Vif 1-94, biotin-A3G peptide, dose response retest (AID 1117319); type: functional;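 note: TR-FRET signal of purified GST-Vif binding a biotinylated A3G peptide; inhibitors lower the FRET signal by blocking Vif and A3G binding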
# SUMO-activating enzyme [23] = target: T5, SUMO-activating enzyme; test: inhibitors of in vitro SUMOylation cascade, primary screen, biochemical, HTRF, uHTS (AID 2006); type: protein-complex assay
# [24] = THP-1 cell cytotoxicity, dose response, cytotoxicity control for Vif-APOBEC3G degradation inhibitor project, THP-1 cells (AID 1117359); type: functional; conditions: Human immunodeficiency virus 1, THP-1
# [25] = target: T6, Corticotropin-releasing factor receptor 2/Corticotropin-releasing factor-binding protein (Homo sapiens, UniProt P24387+Q13324); test: Dose Response confirmation of uHTS hits for small molecule antagonists of the CRF-binding protein and CRF-R2 receptor complex.; type: functional; conditions: read-out: IC50_Mean
# T6 sequence (Q13324 whole entry): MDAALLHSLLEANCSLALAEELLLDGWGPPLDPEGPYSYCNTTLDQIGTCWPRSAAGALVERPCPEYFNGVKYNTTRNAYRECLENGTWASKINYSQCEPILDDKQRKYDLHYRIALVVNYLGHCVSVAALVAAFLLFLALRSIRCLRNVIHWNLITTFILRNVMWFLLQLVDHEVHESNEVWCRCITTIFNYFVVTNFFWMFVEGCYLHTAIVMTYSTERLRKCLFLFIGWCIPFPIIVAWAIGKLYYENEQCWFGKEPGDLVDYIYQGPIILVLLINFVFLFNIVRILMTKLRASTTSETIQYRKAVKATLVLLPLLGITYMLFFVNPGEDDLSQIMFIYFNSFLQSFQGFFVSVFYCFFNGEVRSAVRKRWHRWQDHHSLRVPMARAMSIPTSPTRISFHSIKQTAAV
# T6 sequence (P24387 whole entry): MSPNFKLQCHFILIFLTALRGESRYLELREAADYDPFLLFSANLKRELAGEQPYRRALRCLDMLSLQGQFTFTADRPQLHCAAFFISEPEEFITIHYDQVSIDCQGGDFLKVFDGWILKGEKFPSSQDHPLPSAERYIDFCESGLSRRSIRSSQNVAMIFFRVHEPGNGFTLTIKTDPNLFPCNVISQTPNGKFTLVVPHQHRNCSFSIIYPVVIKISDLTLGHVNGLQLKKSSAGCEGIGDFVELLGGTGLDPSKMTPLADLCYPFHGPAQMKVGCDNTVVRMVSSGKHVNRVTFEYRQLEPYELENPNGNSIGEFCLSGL
# Estrogen receptor = target: T7, Estrogen receptor (Homo sapiens, UniProt P03372); test: potentiators of ERα–SRC-1 coactivator binding, dose response, biochemical, TR-FRET, ERα LBD (AID 737)
# T7 sequence (P03372 whole entry): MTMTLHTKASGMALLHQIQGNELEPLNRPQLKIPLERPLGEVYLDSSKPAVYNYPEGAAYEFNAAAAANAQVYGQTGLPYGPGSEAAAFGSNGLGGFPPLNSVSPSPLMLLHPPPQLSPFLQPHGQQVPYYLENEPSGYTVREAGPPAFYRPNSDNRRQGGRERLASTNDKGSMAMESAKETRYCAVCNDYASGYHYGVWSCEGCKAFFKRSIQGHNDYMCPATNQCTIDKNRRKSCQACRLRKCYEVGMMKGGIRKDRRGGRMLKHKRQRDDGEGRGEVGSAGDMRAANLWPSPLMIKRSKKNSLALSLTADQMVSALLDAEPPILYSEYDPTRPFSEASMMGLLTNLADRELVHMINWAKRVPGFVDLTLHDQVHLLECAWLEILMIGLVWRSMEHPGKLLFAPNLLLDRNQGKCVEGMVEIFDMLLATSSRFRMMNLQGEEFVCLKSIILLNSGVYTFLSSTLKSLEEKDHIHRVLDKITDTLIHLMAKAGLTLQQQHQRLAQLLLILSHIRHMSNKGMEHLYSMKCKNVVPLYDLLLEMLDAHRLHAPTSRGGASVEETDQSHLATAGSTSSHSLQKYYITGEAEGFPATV
# [26] = target: T6, Corticotropin-releasing factor receptor 2/Corticotropin-releasing factor-binding protein; test: activators of CRF receptor 2 with binding protein – uHTS hits, confirmation (AID 602473); type: functional; conditions: read-out: EC50_Mean
# T3 sequence (Q00975 whole entry): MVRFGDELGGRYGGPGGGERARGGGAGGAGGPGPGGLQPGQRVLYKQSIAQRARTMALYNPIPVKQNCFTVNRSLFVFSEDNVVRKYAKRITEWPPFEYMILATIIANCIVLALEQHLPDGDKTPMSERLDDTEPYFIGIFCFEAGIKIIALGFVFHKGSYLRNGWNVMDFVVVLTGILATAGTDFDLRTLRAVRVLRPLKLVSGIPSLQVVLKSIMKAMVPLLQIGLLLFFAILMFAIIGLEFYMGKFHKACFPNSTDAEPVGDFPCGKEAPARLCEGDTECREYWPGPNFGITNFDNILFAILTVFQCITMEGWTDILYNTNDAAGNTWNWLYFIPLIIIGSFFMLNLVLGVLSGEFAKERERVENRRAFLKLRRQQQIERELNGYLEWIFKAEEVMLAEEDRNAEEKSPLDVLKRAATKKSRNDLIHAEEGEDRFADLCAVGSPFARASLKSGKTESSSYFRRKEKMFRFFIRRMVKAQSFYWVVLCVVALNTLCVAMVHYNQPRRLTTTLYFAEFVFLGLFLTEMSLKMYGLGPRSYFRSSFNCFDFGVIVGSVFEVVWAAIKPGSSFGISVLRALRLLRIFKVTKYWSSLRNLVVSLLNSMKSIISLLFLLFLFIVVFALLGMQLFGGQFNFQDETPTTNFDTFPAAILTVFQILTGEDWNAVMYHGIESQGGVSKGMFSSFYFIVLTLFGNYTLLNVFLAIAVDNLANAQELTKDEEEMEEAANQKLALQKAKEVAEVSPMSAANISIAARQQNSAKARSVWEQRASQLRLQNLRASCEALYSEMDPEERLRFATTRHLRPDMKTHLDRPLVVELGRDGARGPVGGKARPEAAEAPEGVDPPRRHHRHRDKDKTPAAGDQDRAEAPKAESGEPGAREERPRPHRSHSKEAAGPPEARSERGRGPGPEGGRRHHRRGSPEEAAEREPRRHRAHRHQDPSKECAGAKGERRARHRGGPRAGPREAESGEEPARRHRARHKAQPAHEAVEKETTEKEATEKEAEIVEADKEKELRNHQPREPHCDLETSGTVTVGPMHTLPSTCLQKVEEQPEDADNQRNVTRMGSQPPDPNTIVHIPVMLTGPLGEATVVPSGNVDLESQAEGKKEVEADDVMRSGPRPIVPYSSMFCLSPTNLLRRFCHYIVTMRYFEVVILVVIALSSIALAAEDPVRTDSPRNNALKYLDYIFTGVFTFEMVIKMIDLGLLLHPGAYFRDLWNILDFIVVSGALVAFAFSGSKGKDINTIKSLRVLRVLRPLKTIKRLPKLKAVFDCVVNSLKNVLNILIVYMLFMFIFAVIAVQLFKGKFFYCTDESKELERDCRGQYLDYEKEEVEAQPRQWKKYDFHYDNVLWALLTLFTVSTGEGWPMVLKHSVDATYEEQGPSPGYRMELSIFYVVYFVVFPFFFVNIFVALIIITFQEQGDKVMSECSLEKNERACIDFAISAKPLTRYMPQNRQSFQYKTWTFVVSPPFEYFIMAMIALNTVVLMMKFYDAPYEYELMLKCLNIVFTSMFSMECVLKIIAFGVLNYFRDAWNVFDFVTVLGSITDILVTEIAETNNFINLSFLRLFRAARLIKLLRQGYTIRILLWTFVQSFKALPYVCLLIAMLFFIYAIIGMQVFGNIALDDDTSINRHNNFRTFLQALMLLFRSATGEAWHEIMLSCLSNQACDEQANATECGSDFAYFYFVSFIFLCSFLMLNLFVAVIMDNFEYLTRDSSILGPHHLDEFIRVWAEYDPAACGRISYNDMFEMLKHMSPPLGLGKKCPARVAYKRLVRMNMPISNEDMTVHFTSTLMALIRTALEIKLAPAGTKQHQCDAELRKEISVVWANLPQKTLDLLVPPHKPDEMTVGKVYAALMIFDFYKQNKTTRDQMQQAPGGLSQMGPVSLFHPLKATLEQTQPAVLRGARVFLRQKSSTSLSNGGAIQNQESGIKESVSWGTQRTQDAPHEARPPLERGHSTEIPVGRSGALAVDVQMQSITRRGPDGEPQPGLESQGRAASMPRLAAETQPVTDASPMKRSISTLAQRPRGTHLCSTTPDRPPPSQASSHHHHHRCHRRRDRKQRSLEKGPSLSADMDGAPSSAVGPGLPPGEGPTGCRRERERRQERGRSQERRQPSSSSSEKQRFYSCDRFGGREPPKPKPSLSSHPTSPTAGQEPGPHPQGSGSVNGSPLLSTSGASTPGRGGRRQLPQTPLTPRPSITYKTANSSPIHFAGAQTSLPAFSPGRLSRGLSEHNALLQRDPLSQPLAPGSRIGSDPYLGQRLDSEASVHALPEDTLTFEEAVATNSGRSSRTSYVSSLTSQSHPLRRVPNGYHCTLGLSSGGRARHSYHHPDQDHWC
# T3 sequence (Q02410 whole entry): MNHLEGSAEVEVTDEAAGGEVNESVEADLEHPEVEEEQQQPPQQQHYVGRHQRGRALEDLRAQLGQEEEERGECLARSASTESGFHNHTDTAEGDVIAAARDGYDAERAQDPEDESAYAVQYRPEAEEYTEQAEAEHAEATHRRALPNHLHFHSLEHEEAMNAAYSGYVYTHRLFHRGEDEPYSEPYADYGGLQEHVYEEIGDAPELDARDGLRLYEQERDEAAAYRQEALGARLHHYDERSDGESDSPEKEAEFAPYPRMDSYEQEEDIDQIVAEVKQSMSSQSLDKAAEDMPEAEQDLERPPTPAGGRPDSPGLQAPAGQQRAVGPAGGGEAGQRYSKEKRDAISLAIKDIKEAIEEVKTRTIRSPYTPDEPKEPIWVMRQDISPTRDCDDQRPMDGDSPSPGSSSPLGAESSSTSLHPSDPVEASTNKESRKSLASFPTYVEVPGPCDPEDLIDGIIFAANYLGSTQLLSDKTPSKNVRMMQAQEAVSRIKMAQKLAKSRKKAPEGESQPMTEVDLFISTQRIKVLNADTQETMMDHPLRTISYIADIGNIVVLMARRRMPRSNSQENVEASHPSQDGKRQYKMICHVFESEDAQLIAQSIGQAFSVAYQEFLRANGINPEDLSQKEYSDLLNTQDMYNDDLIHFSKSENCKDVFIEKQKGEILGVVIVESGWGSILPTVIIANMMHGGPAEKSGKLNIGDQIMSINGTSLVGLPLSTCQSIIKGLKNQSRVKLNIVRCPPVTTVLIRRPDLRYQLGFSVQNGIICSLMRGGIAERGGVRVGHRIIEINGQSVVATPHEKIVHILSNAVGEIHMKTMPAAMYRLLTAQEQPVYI
# T5 sequence (Q9UBE0 whole entry): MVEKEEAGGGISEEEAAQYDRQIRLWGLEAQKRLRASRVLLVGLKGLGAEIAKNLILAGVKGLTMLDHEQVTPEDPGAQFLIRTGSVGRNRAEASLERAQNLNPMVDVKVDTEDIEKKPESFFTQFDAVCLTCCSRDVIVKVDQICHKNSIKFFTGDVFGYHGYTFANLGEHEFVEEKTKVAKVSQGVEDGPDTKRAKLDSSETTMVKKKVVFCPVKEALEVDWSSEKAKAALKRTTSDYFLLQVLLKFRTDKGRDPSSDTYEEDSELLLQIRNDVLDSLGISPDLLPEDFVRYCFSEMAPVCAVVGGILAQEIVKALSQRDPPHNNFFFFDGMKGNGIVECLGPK
# T5 sequence (Q9UBT2 whole entry): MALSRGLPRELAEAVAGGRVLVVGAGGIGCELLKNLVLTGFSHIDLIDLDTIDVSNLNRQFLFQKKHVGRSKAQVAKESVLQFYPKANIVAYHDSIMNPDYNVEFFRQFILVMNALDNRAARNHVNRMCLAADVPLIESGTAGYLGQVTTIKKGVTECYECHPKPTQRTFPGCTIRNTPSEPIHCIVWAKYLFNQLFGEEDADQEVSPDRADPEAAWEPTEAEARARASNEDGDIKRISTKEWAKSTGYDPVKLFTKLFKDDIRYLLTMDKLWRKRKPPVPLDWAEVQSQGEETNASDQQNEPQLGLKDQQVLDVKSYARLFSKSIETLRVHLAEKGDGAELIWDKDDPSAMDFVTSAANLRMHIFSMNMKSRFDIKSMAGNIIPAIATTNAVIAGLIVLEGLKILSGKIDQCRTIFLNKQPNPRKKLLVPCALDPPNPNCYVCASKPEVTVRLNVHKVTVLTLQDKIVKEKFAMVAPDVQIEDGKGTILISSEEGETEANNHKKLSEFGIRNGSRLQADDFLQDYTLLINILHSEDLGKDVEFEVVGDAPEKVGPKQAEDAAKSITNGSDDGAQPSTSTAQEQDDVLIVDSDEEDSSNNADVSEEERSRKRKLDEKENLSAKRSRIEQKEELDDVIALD
# Sequence of Estrogen receptor beta (Q92731 whole entry, the tested form may be a part): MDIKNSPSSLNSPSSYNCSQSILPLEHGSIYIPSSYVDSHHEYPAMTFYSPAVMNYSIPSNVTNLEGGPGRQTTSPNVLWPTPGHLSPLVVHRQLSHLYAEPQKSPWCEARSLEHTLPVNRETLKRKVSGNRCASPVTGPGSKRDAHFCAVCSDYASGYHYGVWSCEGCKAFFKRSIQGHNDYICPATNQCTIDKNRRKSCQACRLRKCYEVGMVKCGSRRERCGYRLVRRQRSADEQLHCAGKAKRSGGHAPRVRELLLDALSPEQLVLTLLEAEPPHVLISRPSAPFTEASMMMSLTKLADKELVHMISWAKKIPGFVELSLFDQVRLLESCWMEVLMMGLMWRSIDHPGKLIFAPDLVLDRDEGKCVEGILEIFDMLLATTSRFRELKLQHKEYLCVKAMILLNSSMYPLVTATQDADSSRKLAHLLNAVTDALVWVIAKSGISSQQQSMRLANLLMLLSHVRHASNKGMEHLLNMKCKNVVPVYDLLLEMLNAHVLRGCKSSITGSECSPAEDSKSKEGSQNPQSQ
# Sequence of Glyceraldehyde-3-phosphate dehydrogenase (P04406 whole entry): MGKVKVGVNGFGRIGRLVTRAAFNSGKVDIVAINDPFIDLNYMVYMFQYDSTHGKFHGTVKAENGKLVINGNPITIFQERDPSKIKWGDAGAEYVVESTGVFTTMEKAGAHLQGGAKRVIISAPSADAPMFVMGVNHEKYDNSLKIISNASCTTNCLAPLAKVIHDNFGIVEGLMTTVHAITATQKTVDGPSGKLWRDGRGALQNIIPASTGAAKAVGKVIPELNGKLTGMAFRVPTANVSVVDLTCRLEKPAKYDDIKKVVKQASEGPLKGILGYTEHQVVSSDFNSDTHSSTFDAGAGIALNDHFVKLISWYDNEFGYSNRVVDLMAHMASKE
compound,measurement,setting,value
O=C(O)C1Nc2c(O)cccc2C2C=CCC12 (configuration not stated),IC50,Estrogen receptor beta,> 50 µM (not active)
same,IC50,[1],29.4 µM (active)
same,IC50,[2],> 10 µM (not active)
same,IC50,[3],62 µM (active)
same,IC50,[4],6.84 µM (active)
same,IC50,NS3,3.43 µM (active)
same,IC50,[5],8.35 µM (active)
same,IC50,[6],8.5 µM (active)
same,IC50,[7],7.38 µM (active) and 14.6 µM (active)
same,IC50,[8],4.98 µM (active)
same,IC50,[9],9.87 µM (active)
same,IC50,[10],11.2 µM (active)
same,IC50,[11],8.61 µM (active)
same,IC50,[12],12.7 µM (active)
same,IC50,[13],0.503 µM (active)
same,CC50,[14],> 40 µM (active)
same,IC50,Genome polyprotein,> 49.8 µM (not active)
same,IC50,[15],47.7 µM (active)
Clc1ccc(C2C=C(c3ccccc3)Nc3ncnn32)cc1 (configuration not stated),EC50,Bcl-2-like protein 10,14.2 µM (active)
Oc1nc2ccccc2c(O)c1O,IC50,[16],13.6 µM (not active)
O=C1NC(=O)C(=Cc2ccc(-c3cc(Cl)ccc3Cl)[nH]2)C(=O)N1,CC50,[17],> 20 µM (active)
same,IC50,[18],> 67 µM (not active)
same,IC50,[19],5.6 µM (active)
same,CC50,[20],23.1 µM (active)
same,IC50,cells,< 0.1 µM (active)
same,IC50,SUMO-activating enzyme [21],11.6 µM (active)
same,IC50,[22],> 100 µM (active)
same,IC50,SUMO-activating enzyme [23],16.4 µM (active)
same,CC50,[24],> 40 µM (active)
COC(=O)c1ccc(CSc2nc3c(cnn3-c3ccc(F)cc3)c(=O)[nH]2)o1,IC50,[25],> 47.1 µM (inactive)
same,EC50,Estrogen receptor,12.9 µM (not active)
same,EC50,[26],> 53 µM (inactive)
